{
  "source": "patent US6380248B1",
  "about": "“Metal-thiols as immunomodulating agents” (Winthrop University Hospital, priority 1998, dated 2002)",
  "key": {"bacteria": {"system": "bacteria", "test": "Antibacterial activity of bismuth-thiols", "type": "cell-based", "settings": "for antibacterial / antimicrobial activity in words: comparison between bismuth-thiols"}, "IL-10 [1]": {"system": "IL-10", "test": "Serum cytokine levels in CLP mice treated with BisEDT", "type": "in vivo", "settings": "BisEDT 1:2 (Bismuth 20 μg/kg BW) tail vein 5 h after CLP, sacrificed 18 h after injection"}, "mice [2]": {"system": "mice", "settings": "according to MSDS sheets from Aldrich Chemical Company; cited from earlier work"}, "IL-1α": {"system": "IL-1α", "test": "Serum cytokine levels in CLP mice treated with BisEDT", "type": "in vivo", "settings": "BisEDT 1:2 (Bismuth 20 μg/kg BW) tail vein 5 h after CLP, sacrificed 18 h after injection"}, "[3]": {"system": "pro- and anti-inflammatory cytokines", "test": "Polymicrobial sepsis induced up-regulation of cytokines in mice", "settings": "mouse, in vivo"}, "TGFβ1": {"system": "TGFβ1", "test": "Serum cytokine levels in CLP mice treated with BisEDT", "type": "in vivo", "settings": "BisEDT 1:2 (Bismuth 20 μg/kg BW) tail vein 5 h after CLP, sacrificed 18 h after injection"}, "TNFα": {"system": "TNFα", "test": "Serum cytokine levels in CLP mice treated with BisEDT", "type": "in vivo", "settings": "BisEDT 1:2 (Bismuth 20 μg/kg BW) tail vein 5 h after CLP, sacrificed 18 h after injection, * p<0.05"}, "IL-10 [4]": {"system": "IL-10", "type": "in vivo, mice"}, "[5]": {"test": "Stability of the bismuth-thiol compound", "type": "physicochemical", "settings": "compared to bismuth:dimercaprol"}, "mice [6]": {"system": "mice", "test": "Toxicity / lethality to mice", "settings": "mouse, in vivo"}, "[7]": {"system": "CLP mice (sepsis induced by cecal ligation and perforation)", "test": "Survival of septic mice (cecal ligation and perforation, CLP) treated with BisEDT", "type": "in vivo", "experimental": "In the absence of any treatment, mortality rate is greater than 90% within 18-72 hours.\nThe object was to determine if Bismuth-ethanedithiol (BisEDT) in a molar ratio of 1:2, would protect CLP mice. Mortality rate of greater than 90% is observed within 18-72 hours in this model. A dose response study was performed to determine an optimal dose of BisEDT. […] Data were analyzed using Chi-Square and Krumkal Walkis tests. The data are presented below as average ±SEM. Data compared to control (dose 0) were considered significant (*) at p<0.05."}, "[8]": {"system": "macrophages/monocytes from CLP mice", "type": "in vivo"}, "[9]": {"settings": "repeat study, Injection Once a Day, dose 2 ug/kg BW, * p<0.05"}, "[10]": {"settings": "repeat study, Injection Once a Day, dose 200 ug/kg BW"}, "[11]": {"settings": "repeat study, Injection Twice a Day, dose 2 ug/kg BW, * p<0.05"}, "[12]": {"settings": "repeat study, Injection Twice a Day, dose 200 ug/kg BW"}},
  "note": "Read-outs that look alike come from different tables or passages of the source.",
  "data": [
    {"compound": "CC(O)C(C)S", "note": "(centres unmarked) [3-mercapto-2-butanol]", "values": [
      {"measurement": "amount of thiol required relative to dimercaprol to achieve similar inhibitory activity", "setting": "bacteria; in combination with bismuth", "value": "Approximately 3 times"}
    ]},
    {"compound": "SCCCCS.[Bi]", "note": "[Bismuth-1,4-butanedithiol]", "values": [
      {"measurement": "less antibacterial activity (compared with vicinal dithiols Bismuth-2,3-BDT / bismuth:ethanedithiol)", "setting": "bacteria", "value": "~100", "unit": "fold"}
    ]},
    {"compound": "O=S(=O)(O)CC(S)CS", "note": "(centres unmarked) [dimercaptopropane-1-sulfonic acid, reference compound]", "values": [
      {"measurement": "antibacterial synergy of the thiol with bismuth", "setting": "bacteria", "value": "did not show antibacterial synergy"}
    ]},
    {"compound": "Bismuth-2,3-BDT (2,3-butanedithiol)", "values": [
      {"measurement": "antibacterial / antimicrobial activity in words", "setting": "bacteria", "value": "as good as bismuth:ethanedithiol"}
    ]},
    {"compound": "Bismuth-ethanedithiol [BisEDT]", "values": [
      {"measurement": "Serum IL-10 level", "setting": "IL-10 [1]", "value": "165 ± 69", "unit": "pg/mL"},
      {"measurement": "lethality to mice", "setting": "mice [2]", "value": "very similar to that of dimercaprol"},
      {"measurement": "Serum IL-1α level", "setting": "IL-1α", "value": "10.5 ± 1.1", "unit": "pg/mL"},
      {"measurement": "prevention of sepsis induced up-regulation of pro- and anti-inflammatory cytokines", "setting": "[3]", "value": "able to prevent the polymicrobial sepsis induced up-regulation of both pro- and anti-inflammatory cytokines"},
      {"measurement": "Serum TGFβ1 level", "setting": "TGFβ1", "value": "24.8 ± 3.6", "unit": "pg/mL"},
      {"measurement": "Serum TNFα level", "setting": "TNFα", "value": "13.7 ± 2.9* pg/ml"},
      {"measurement": "IL-10 production in vitro by splenic macrophages", "setting": "IL-10 [4]; from CLP mice treated with BisEDT, unstimulated", "value": "do not produce IL-10 in vitro as much as the macrophages from BisEDT untreated CLP animals"},
      {"measurement": "IL-10 release by splenic macrophages, stimulated", "setting": "IL-10 [4]; mouse, in vivo", "value": "did not significantly up-regulate the IL-10 release"},
      {"measurement": "stability", "setting": "[5]", "value": "more stable compound at all molar ratios and pHs"},
      {"measurement": "toxicity compared to bismuth:dimercaprol", "setting": "mice [6]", "value": "no more toxic"},
      {"measurement": "antibacterial / antimicrobial activity in words", "setting": "bacteria", "value": "stronger antimicrobial agent than bismuth:dimercaprol"},
      {"measurement": "Survival", "setting": "[7]; dose 2 ug/kg BW via tail vein once a day for three days, observed 8 days, average ±SEM, dose response study", "value": "64 ± 43", "unit": "h"},
      {"measurement": "Survival (%)", "setting": "[7]; dose 2 ug/kg BW via tail vein once a day for three days, observed 8 days, dose response study", "value": 20, "unit": "%"},
      {"measurement": "Survival (hrs.)", "setting": "[7]; dose 20 ug/kg BW via tail vein once a day for three days, average ±SEM, dose response study, * p<0.05 vs dose 0", "value": "110 ± 35* hrs."},
      {"measurement": "Survival (%)", "setting": "[7]; dose 20 ug/kg BW via tail vein once a day for three days, dose response study, * p<0.05 vs dose 0", "value": "60* %"},
      {"measurement": "Survival", "setting": "[7]; dose 200 ug/kg BW via tail vein once a day for three days, average ±SEM, dose response study", "value": "75 ± 21", "unit": "h"},
      {"measurement": "Survival (%)", "setting": "[7]; dose 200 ug/kg BW via tail vein once a day for three days, dose response study", "value": 40, "unit": "%"},
      {"measurement": "Survival", "setting": "[7]; dose 2000 ug/kg BW via tail vein once a day for three days, average ±SEM, dose response study", "value": "48 ± 24", "unit": "h"},
      {"measurement": "Survival (%)", "setting": "[7]; dose 2000 ug/kg BW via tail vein once a day for three days, dose response study", "value": 20, "unit": "%"},
      {"measurement": "effect on survival", "setting": "[7]; dose of 20 μg/kg body weight", "value": "significantly increase survival"},
      {"measurement": "effect of increase in dose frequency on survival", "setting": "[7]; once daily to twice daily, P=0.73", "value": "did not increase survival"},
      {"measurement": "Survival (%)", "setting": "[7]; [9]", "value": "56* %"},
      {"measurement": "Survival (hrs.)", "setting": "[7]; [9]", "value": "109 ± 29* hrs."},
      {"measurement": "Survival", "setting": "[7]; [10]", "value": "75 ± 21", "unit": "h"},
      {"measurement": "Survival (%)", "setting": "[7]; [10]", "value": 40, "unit": "%"},
      {"measurement": "Survival (%)", "setting": "[7]; [11]", "value": "44* %"},
      {"measurement": "Survival (hrs.)", "setting": "[7]; [11]", "value": "103 ± 29* hrs."},
      {"measurement": "Survival", "setting": "[7]; [12]", "value": "97 ± 40", "unit": "h"},
      {"measurement": "Survival (%)", "setting": "[7]; [12]", "value": 40, "unit": "%"},
      {"measurement": "percentage survival, overall", "setting": "[7]; treatment group versus 0% (control), summary of Example 1", "value": 60, "unit": "%"},
      {"measurement": "survivability, overall", "setting": "[7]; with treatment versus approximately 36 hours without treatment, summary of Example 1", "value": 108, "unit": "h"},
      {"measurement": "amounts of superoxide, H2O2 and NO2- produced by macrophages/monocytes, unstimulated", "setting": "[8]; from BisEDT-treated CLP mice (Bismuth 20 μg/kg BW), without in vitro stimulation", "value": "in between that produced by the control and untreated CLP mice but not significantly different from either of these groups"},
      {"measurement": "release of superoxide, H2O2 and NO2- by macrophages/monocytes, stimulated", "setting": "[8]; mouse, in vivo", "value": "significantly increased"}
    ]},
    {"compound": "Bismuth:propanedithiol (1,3-propanedithiol)", "values": [
      {"measurement": "antibacterial / antimicrobial activity in words", "setting": "bacteria", "value": "works quite well, but not as well as the vicinal dithiols"}
    ]},
    {"compound": "bismuth:2-mercaptoethylamine", "values": [
      {"measurement": "decrease in activity compared with bismuth:β-mercaptoethanol", "setting": "bacteria; antibacterial activity", "value": 5, "unit": "fold"}
    ]},
    {"compound": "dimercapto-succinic acid [reference compound]", "values": [
      {"measurement": "antibacterial synergy of the thiol with bismuth", "setting": "bacteria", "value": "largely abolished synergy with bismuth"},
      {"measurement": "antibacterial synergy of the thiol with bismuth", "setting": "bacteria; listed as DMSA", "value": "did not show antibacterial synergy"}
    ]}
  ]
}
